Test [1] concerns the target T1, δ-opioid receptor (Mus musculus, UniProt P32300). Particulars: δ-antagonism in vitro; cited from earlier work.
Test [2] deals with μ-opioid receptor. Particulars: μ-antagonism in vitro; cited from earlier work.
Test [3] deals with μ-opioid receptor (MOR) (Rattus norvegicus, UniProt P33535). Particulars: cited from earlier work; for Selectivity Kiδ/Kiμ: ratio of binding Ki values; for Ki: read-out: Receptor affinity Ki μ, rat brain membranes.
The target of test [4] is T1, δ-opioid receptor. The following applies: read-out: MVD IC50; agonism, mouse vas deferens; cited from earlier work.
In test [5] the target is μ-opioid receptors (Cavia porcellus, UniProt A0ACM8Q262). Particulars: read-out: GPI IC50; agonism, guinea pig ileum; cited from earlier work.
In test [6] the target is δ-opioid receptor (DOR) (Rattus norvegicus, UniProt P33533). Particulars: cited from earlier work; for Ki: read-out: Receptor affinity Ki δ, rat brain membranes.
For test [7], the target named is T1, δ-opioid receptor. The test can be described thus: Effect on deltorphin C stimulated GTPγS binding in NG108-15 cell membranes. The class given is biochemical. Particulars: for GTPγS (pA2)δ: antagonism of deltorphin C stimulated GTPγS binding, NG108-15 cell membranes, NA: not active (>20.000nM).

Numbered stars: 1 amine (or outer) side, 2 acyl side, 3 side chain; on linkers, the order of the positions; unused ones are H or OH. Bridge positions count the residues as written; N and C are the ends. Square brackets hold non-standard residues; d marks the D form. Peptide text beside a SMILES is read from it. I, II: the chains in the order shown. Dmt = Cc1cc(O)cc(C)c1C[C@H](N)C(=O)O; Ethylenediamine = C(CN[*:2])N[*:1]; Tic = O=C(O)[C@@H]1Cc2ccccc2CN1

δ-opioid receptor (DOR), sequence (P33533 whole entry): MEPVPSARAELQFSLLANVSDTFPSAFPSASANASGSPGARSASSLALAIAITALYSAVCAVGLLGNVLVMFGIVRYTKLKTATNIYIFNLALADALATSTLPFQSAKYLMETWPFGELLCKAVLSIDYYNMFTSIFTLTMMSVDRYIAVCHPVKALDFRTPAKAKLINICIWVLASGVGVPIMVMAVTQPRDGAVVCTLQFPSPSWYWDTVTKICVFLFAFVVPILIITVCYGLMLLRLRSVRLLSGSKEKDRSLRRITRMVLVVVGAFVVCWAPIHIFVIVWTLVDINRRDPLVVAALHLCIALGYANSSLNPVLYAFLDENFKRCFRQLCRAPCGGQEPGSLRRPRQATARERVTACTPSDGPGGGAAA
T1 sequence (P32300 whole entry): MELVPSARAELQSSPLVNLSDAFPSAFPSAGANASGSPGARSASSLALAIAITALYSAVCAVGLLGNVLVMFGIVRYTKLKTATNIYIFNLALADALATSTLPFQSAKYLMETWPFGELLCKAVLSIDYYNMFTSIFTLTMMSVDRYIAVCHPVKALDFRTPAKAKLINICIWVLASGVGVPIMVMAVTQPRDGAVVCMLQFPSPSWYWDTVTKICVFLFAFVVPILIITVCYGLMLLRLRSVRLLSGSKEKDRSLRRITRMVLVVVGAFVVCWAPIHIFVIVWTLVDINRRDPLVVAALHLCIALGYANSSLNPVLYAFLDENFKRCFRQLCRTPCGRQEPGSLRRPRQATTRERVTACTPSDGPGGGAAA
μ-opioid receptor (MOR), sequence (P33535 whole entry): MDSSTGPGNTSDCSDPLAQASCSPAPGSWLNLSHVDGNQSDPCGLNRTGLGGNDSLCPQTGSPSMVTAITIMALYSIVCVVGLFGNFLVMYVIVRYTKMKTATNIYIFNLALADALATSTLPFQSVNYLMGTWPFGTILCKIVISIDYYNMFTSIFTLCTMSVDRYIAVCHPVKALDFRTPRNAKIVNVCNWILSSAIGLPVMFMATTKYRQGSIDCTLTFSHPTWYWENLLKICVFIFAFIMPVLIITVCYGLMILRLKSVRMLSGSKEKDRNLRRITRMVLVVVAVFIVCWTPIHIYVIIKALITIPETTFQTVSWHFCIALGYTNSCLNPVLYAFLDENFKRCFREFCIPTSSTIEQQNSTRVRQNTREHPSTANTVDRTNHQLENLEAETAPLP
μ-opioid receptors, sequence (A0ACM8Q262 1-400): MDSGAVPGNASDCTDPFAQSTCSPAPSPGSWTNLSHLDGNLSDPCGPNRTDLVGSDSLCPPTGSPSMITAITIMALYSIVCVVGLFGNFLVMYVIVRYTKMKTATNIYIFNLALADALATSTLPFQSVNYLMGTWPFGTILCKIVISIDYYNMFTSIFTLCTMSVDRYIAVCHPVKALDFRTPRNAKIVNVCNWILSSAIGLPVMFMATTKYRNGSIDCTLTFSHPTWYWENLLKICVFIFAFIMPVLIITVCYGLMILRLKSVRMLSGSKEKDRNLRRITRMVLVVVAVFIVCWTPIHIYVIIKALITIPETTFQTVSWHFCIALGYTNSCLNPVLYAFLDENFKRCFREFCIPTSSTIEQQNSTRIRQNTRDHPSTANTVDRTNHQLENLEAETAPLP

Regarding `Cc1cc(O)cc(C)c1CC(N)C(=O)N1Cc2ccccc2CC1C(=O)NCCCCCCNC(=O)C1Cc2ccccc2CN1C(=O)C(N)Cc1c(C)cc(O)cc1C` (stereo not drawn) [1,6-bis[H-Dmt-Tic-NH]hexane], the “pA2 δ” value in test [1] is 10.62.

`Cc1cc(O)cc(C)c1CC(N)C(=O)N1Cc2ccccc2CC1C(=O)NCCCCNC(=O)C1Cc2ccccc2CN1C(=O)C(N)Cc1c(C)cc(O)cc1C` (stereo not drawn) [butylene-bis[Dmt-Tic-NH]]: the “pA2 δ” value in test [1] is on record as 10.51. The “pA2 μ” value in test [2] is 6.99.

Turning to `Cc1cc(O)cc(C)c1C[C@H](N)C(=O)N[C@H]1Cc2ccccc2CN(CC(=O)NCc2ccccc2)C1=O` [compound 6, H-Dmt-Aba-Gly-NH-Bn], the “Selectivity Kiδ/Kiμ” value in test [3] was 24. For the same compound, the Ki (commonly a dissociation constant, usually derived from enzyme kinetics or from competition with a known ligand) is 0.46 ± 0.07 nM in test [3] and 11 ± 2.3 nM in test [6]. Besides, the IC50 (usually the concentration needed to halve the response being measured) in test [4] was 830 ± 70 nM; in test [5], 51 ± 5 nM.

Regarding `Cc1cc(O)cc(C)c1C[C@H](N)C(=O)N[C@@H]1Cc2c([nH]c3ccccc23)CN(CC(=O)NCc2ccccc2)C1=O` [compound 7, H-Dmt-D-Aia-Gly-NH-Bn], in test [3], the “Selectivity Kiδ/Kiμ” value is given as 48. The results for the inhibition constant Ki in test [3] and in test [6] were 3.35 ± 0.28 nM and 160 ± 23 nM, respectively. In addition, the IC50 in test [4] was 1500 ± 139 nM; in test [5] it was 14.9 ± 1.6 nM.

For `Cc1cc(O)cc(C)c1C[C@@H](C(=O)N[C@H]1Cc2c([nH]c3ccccc23)CN(CC(=O)O)C1=O)N(C)C` [compound 8, Me2Dmt-Aia-Gly-OH], the Ki in test [3] is 874 ± 100 nM; in test [6], 6.64 ± 0.89 nM. Besides, the “Selectivity Kiμ/Kiδ” value in test [6] (ratio of binding Ki values) was 132.

In the case of `Cc1cc(O)cc(C)c1C[C@H](N)C(=O)N1Cc2ccccc2C[C@H]1C(=O)NCCNC(=O)[C@@H]1Cc2ccccc2CN1C(=O)[C@@H](N)Cc1c(C)cc(O)cc1C` [compound 9, ethylene-bis(H-Dmt-Tic-NH)] (I: H-[Dmt]-[Tic] / II: H-[Dmt]-[Tic]; linker I:C-II:C via Ethylenediamine), in test [7], the Kb worked out at 0.912 nM and the “GTPγS (pA2)δ” value was 9.04.

`Cc1cc(O)cc(C)c1C[C@H](N)C(=O)N[C@@H]1Cc2c([nH]c3ccccc23)CN(CC(=O)NCCNC(=O)CN2Cc3[nH]c4ccccc4c3C[C@@H](NC(=O)[C@@H](N)Cc3c(C)cc(O)cc3C)C2=O)C1=O` [compound 11, ethylene-bis(H-Dmt-D-Aia-Gly-NH)]: the “GTPγS (pA2)δ” value in test [7] is “unable to diminish the GTPγS binding”.

As to `Cc1cc(O)cc(C)c1C[C@H](N)C(=O)N1Cc2ccccc2C[C@H]1C(=O)NCCN(CCNC(=O)[C@@H]1Cc2ccccc2CN1C(=O)[C@@H](N)Cc1c(C)cc(O)cc1C)CCNC(=O)[C@@H]1Cc2ccccc2CN1C(=O)[C@@H](N)Cc1c(C)cc(O)cc1C` [compound 15, tris-[H-Dmt-Tic-NH-ethylene]-N], the Kb in test [7] is 2.29 nM.

In the case of `Cc1cc(O)cc(C)c1C[C@H](N)C(=O)N[C@H]1Cc2ccccc2CN(CC(=O)NCCN(CCNC(=O)CN2Cc3ccccc3C[C@H](NC(=O)[C@@H](N)Cc3c(C)cc(O)cc3C)C2=O)CCNC(=O)CN2Cc3ccccc3C[C@H](NC(=O)[C@@H](N)Cc3c(C)cc(O)cc3C)C2=O)C1=O` [compound 16, tris-[H-Dmt-Aba-Gly-NH-ethylene]-N], the Kb in test [7] was 22.9 nM.

(Values after publication PMC2840614 (Bioorganic & medicinal chemistry letters, 2010).)
